Assay results reported in patent US20250057849A1, “ANTIVIRAL COMPOSITION COMPRISING NUCLEOSIDE ANALOGUES DERIVED FROM NUCLEIC ACID AND PHARMACEUTICALLY ACCEPTABLE SALT THEREOF” (CJ CheilJedang Corporation, priority 2021, published 2025).

Test system: PRRSV (NA type, VR-2332 strain)
Test: PRRSV infection inhibition in Marc-145 cells (immunofluorescence staining)
Format: cell-based, Porcine Reproductive and Respiratory Syndrome virus
Details: CC50/IC50

Compound	SI (selectivity index), PRRSV
O=C[C@@H](CO)O[C@H](C=O)n1cnc2c(=O)[nH]cnc21 [Dialdehyde-inosine, dialdehyde form of inosine]	>105.3
O=c1[nH]c(=O)c2ncn([C@@H](CO)OC(CO)CO)c2[nH]1 [Acyclic diol-xanthosine, acyclic diol form of xanthosine]	>20

Same assay, conditions: Porcine reproductive and respiratory syndrome virus, MARC145, 72 h, Marc-145 cells, 100 TCID50/ml PRRSV, three days after treatment; read-out: PRRSV infection inhibition concentration IC50

Compound	IC50 [µM]
O=C[C@@H](CO)O[C@H](C=O)n1cnc2c(=O)[nH]cnc21 [Dialdehyde-inosine, dialdehyde form of inosine]	95
O=c1[nH]c(=O)c2ncn([C@@H](CO)OC(CO)CO)c2[nH]1 [Acyclic diol-xanthosine, acyclic diol form of xanthosine]	400

Test system: PEDV (G1a type, SM98 strain)
Test: PEDV infection inhibition in Vero cells (PEDV detection kit on isolated RNA)
Format: cell-based, Porcine Epidemic Diarrhea virus
Details: CC50/IC50
Method: The next day, PEDV (G1a type, SM98 strain) of 200 TCID50/ml and inosine, xanthosine and guanosine in the dialdehyde and acyclic diol forms were treated to the cells simultaneously, and after 2 days, using commercialized Viral gene (DNA/RNA) extraction kit (iNtRON, 101410754), RNA was isolated. For the isolated RNA, using commercialized PEDV detection kit (Mediandiagnostics, NS-PED-31), the antiviral efficacy of the materials was verified.

Compound	SI (selectivity index), PEDV
O=C[C@@H](CO)O[C@H](C=O)n1cnc2c(=O)[nH]cnc21 [Dialdehyde-inosine, dialdehyde form of inosine]	>22.3
O=c1[nH]c(=O)c2ncn([C@@H](CO)OC(CO)CO)c2[nH]1 [Acyclic diol-xanthosine, acyclic diol form of xanthosine]	>4.4

Same assay, conditions: Porcine epidemic diarrhea virus, 48 h; Vero cells, 200 TCID50/ml PEDV, after 2 days; read-out: PEDV infection inhibition concentration IC50

Compound	IC50 [µM]
O=C[C@@H](CO)O[C@H](C=O)n1cnc2c(=O)[nH]cnc21 [Dialdehyde-inosine, dialdehyde form of inosine]	448
O=c1[nH]c(=O)c2ncn([C@@H](CO)OC(CO)CO)c2[nH]1 [Acyclic diol-xanthosine, acyclic diol form of xanthosine]	2300

Test system: PCV2
Test: PCV2 infection inhibition in PK15 cells (qPCR)
Format: cell-based, Porcine Circovirus Type 2
Details: CC50/IC50
Method: For the isolated DNA, using PCV2-specific primers (F-[…] , R-[…] ) and realtime RT-qPCR experimental method (95° C., 30 seconds 1 cycle, 95° C., 20 seconds, 56° C., 60 seconds 40 cycles), the antiviral efficacy of the materials was verified.

Compound	SI (selectivity index), PCV2
O=C[C@@H](CO)O[C@H](C=O)n1cnc2c(=O)[nH]cnc21 [Dialdehyde-inosine, dialdehyde form of inosine]	>12.2
O=c1[nH]c(=O)c2ncn([C@@H](CO)OC(CO)CO)c2[nH]1 [Acyclic diol-xanthosine, acyclic diol form of xanthosine]	>10.1

Same assay, conditions: Porcine circovirus 2, PK-15, 96 h; PK15 cells, 200 TCID50/well PCV2, after 4 days; read-out: PCV2 infection inhibition concentration IC50

Compound	IC50 [µM]
O=C[C@@H](CO)O[C@H](C=O)n1cnc2c(=O)[nH]cnc21 [Dialdehyde-inosine, dialdehyde form of inosine]	817
O=c1[nH]c(=O)c2ncn([C@@H](CO)OC(CO)CO)c2[nH]1 [Acyclic diol-xanthosine, acyclic diol form of xanthosine]	995

Test system: PRV
Test: microbe, parasite or virus in culture
Format: cell-based, Porcine Rotavirus
Details: CC50/IC50

Compound	SI (selectivity index), PRV
O=C[C@@H](CO)O[C@H](C=O)n1cnc2c(=O)[nH]cnc21 [Dialdehyde-inosine, dialdehyde form of inosine]	>103.5
O=c1[nH]c(=O)c2ncn([C@@H](CO)OC(CO)CO)c2[nH]1 [Acyclic diol-xanthosine, acyclic diol form of xanthosine]	>2.9

Same assay, conditions: Rotavirus C, Vero, 72 h, read-out: PRV infection inhibition concentration IC50

Compound	IC50 [µM]
O=C[C@@H](CO)O[C@H](C=O)n1cnc2c(=O)[nH]cnc21 [Dialdehyde-inosine, dialdehyde form of inosine]	96.6
O=c1[nH]c(=O)c2ncn([C@@H](CO)OC(CO)CO)c2[nH]1 [Acyclic diol-xanthosine, acyclic diol form of xanthosine]	3420

Test system: Swine Influenza virus (SIV)
Test: organism not typed
Format: cell-based
Details: CC50/IC50

Compound	SI (selectivity index), SIV
O=C[C@@H](CO)O[C@H](C=O)n1cnc2c(=O)[nH]cnc21 [Dialdehyde-inosine, dialdehyde form of inosine]	>18.1
O=c1[nH]c(=O)c2ncn([C@@H](CO)OC(CO)CO)c2[nH]1 [Acyclic diol-xanthosine, acyclic diol form of xanthosine]	>1.5

Same assay, conditions: MDCK, 96 h, read-out: SIV infection inhibition concentration IC50

Compound	IC50 [µM]
O=C[C@@H](CO)O[C@H](C=O)n1cnc2c(=O)[nH]cnc21 [Dialdehyde-inosine, dialdehyde form of inosine]	554
O=c1[nH]c(=O)c2ncn([C@@H](CO)OC(CO)CO)c2[nH]1 [Acyclic diol-xanthosine, acyclic diol form of xanthosine]	6690

Test system: IBV
Test: microbe, parasite or virus in culture
Format: cell-based, Avian Infectious Bronchitis virus
Details: Avian coronavirus, Vero, 96 h, read-out: IBV infection inhibition concentration IC50

Compound	IC50 [µM]
O=C[C@@H](CO)O[C@H](C=O)n1cnc2c(=O)[nH]cnc21 [Dialdehyde-inosine, dialdehyde form of inosine]	76.4

Same assay, conditions: CC50/IC50

Compound	SI (selectivity index), IBV
O=C[C@@H](CO)O[C@H](C=O)n1cnc2c(=O)[nH]cnc21 [Dialdehyde-inosine, dialdehyde form of inosine]	>130

Same assay, conditions: Vero cells, 200 TCID50/well IBV, after 4 days; read-out: IBV infection inhibition concentration IC50

Compound	IC50 [µM]
dialdehyde form of inosine [Dialdehyde-inosine]	76.4

Test system: NDV
Test: microbe, parasite or virus in culture
Format: cell-based, Avian Newcastle Disease virus
Details: CC50/IC50

Compound	SI (selectivity index), NDV
O=C[C@@H](CO)O[C@H](C=O)n1cnc2c(=O)[nH]cnc21 [Dialdehyde-inosine, dialdehyde form of inosine]	>21.3

Same assay, conditions: Vero cells, 200 TCID50/well NDV, after 3 days; read-out: NDV infection inhibition concentration IC50

Compound	IC50 [µM]
dialdehyde form of inosine [Dialdehyde-inosine]	469

Same assay, conditions: avian paramyxovirus 1, Vero, 72 h, read-out: NDV infection inhibition concentration IC50

Compound	IC50 [µM]
O=C[C@@H](CO)O[C@H](C=O)n1cnc2c(=O)[nH]cnc21 [Dialdehyde-inosine, dialdehyde form of inosine]	469

Same assay, conditions: avian paramyxovirus 1, Vero, read-out: NDV infection inhibition efficacy

Compound	inhibition at 8000 µM [%]
O=c1[nH]c(=O)c2ncn([C@@H](CO)OC(CO)CO)c2[nH]1 [Acyclic diol-xanthosine, acyclic diol form of xanthosine]	39.4

Test system: BVDV
Test: BVDV infection inhibition in MDBK cells (RT-qPCR)
Format: cell-based, Bovine Viral Diarrhea virus
Details: Bovine viral diarrhea virus isolates and strains, 96 h; MDBK cells, 200 TCID50/well BVDV, after 4 days; read-out: BVDV infection inhibition concentration IC50
Method: The next day, BVDV of 200 TCID50/well and inosine, xanthosine and guanosine in the dialdehyde and acyclic diol forms were treated to the cells simultaneously, and after 4 days, using commercialized Viral gene (DNA/RNA) extraction kit (iNtRON, 101410754), RNA was isolated.
For the isolated RNA, using BVDV-specific primers (F-[…] , R-[…] ) and realtime RT-qPCR experimental method (94° C., 10 minutes 1 cycle, 94° C., 10 seconds, 53° C., 20 seconds, 72° C., 30 seconds 35 cycles), the antiviral efficacy of the materials was verified.

Compound	IC50 [µM]
O=C[C@@H](CO)O[C@H](C=O)n1cnc2c(=O)[nH]cnc21 [Dialdehyde-inosine, dialdehyde form of inosine]	110

Same assay, conditions: CC50/IC50

Compound	SI (selectivity index), BVDV
O=C[C@@H](CO)O[C@H](C=O)n1cnc2c(=O)[nH]cnc21 [Dialdehyde-inosine, dialdehyde form of inosine]	>90.8

Test system: BRV
Test: BRV infection inhibition in MDBK cells (RT-qPCR)
Format: cell-based, Bovine Rotavirus
Details: CC50/IC50
Method: The next day, BRV of 200 TCID50/well and inosine, xanthosine and guanosine in the dialdehyde and acyclic diol forms were treated to the cells simultaneously, and after 4 days, using commercialized Viral gene (DNA/RNA) extraction kit (iNtRON, 101410754), RNA was isolated.
For the isolated RNA, using BRV-specific primers (F-[…] , R-[…] ) and realtime RT-qPCR experimental method (95° C., 10 minutes 1 cycle, 95° C., 15 seconds, 60° C., 15 seconds, 72° C., 20 seconds 40 cycles), the antiviral efficacy of the materials was confirmed.

Compound	SI (selectivity index), BRV
O=C[C@@H](CO)O[C@H](C=O)n1cnc2c(=O)[nH]cnc21 [Dialdehyde-inosine, dialdehyde form of inosine]	>93.8
O=c1[nH]c(=O)c2ncn([C@@H](CO)OC(CO)CO)c2[nH]1 [Acyclic diol-xanthosine, acyclic diol form of xanthosine]	>6.4

Same assay, conditions: Rotavirus A, 96 h; MDBK cells, 200 TCID50/well BRV, after 4 days; read-out: BRV infection inhibition concentration IC50

Compound	IC50 [µM]
O=C[C@@H](CO)O[C@H](C=O)n1cnc2c(=O)[nH]cnc21 [Dialdehyde-inosine, dialdehyde form of inosine]	107
O=c1[nH]c(=O)c2ncn([C@@H](CO)OC(CO)CO)c2[nH]1 [Acyclic diol-xanthosine, acyclic diol form of xanthosine]	1560

Test system: CPV
Test: CPV infection inhibition in MDCK cells (qPCR)
Format: cell-based, Canine Parvovirus
Details: CC50/IC50
Method: For the isolated DNA, using CPV-specific primers (F-[…] , R-[…] ) and realtime RT-qPCR experimental method (95° C., 5 minutes 1 cycle, 95° C., 10 seconds, 60° C., 30 seconds, 40 cycles), the antiviral efficacy of the materials was confirmed.

Compound	SI (selectivity index), CPV
O=C[C@@H](CO)O[C@H](C=O)n1cnc2c(=O)[nH]cnc21 [Dialdehyde-inosine, dialdehyde form of inosine]	>5.9
O=c1[nH]c(=O)c2ncn([C@@H](CO)OC(CO)CO)c2[nH]1 [Acyclic diol-xanthosine, acyclic diol form of xanthosine]	>4.6

Same assay, conditions: Canine parvovirus, 96 h; MDCK cells, 200 TCID50/well CPV, after 4 days; read-out: CPV infection inhibition concentration IC50 (Table 10)

Compound	IC50 [µM]
O=C[C@@H](CO)O[C@H](C=O)n1cnc2c(=O)[nH]cnc21 [Dialdehyde-inosine, dialdehyde form of inosine]	1690
O=c1[nH]c(=O)c2ncn([C@@H](CO)OC(CO)CO)c2[nH]1 [Acyclic diol-xanthosine, acyclic diol form of xanthosine]	2200

Test system: Vero cell line
Test: not given
Details: monkey

Compound	CC50 [µM]
O=C[C@@H](CO)O[C@H](C=O)n1cnc2c(=O)[nH]cnc21 [Dialdehyde-inosine, dialdehyde form of inosine]	> 10000
O=c1[nH]c(=O)c2ncn([C@@H](CO)OC(CO)CO)c2[nH]1 [Acyclic diol-xanthosine, acyclic diol form of xanthosine]	> 10000

Test system: not listed separately
Test: in vitro
Details: monkey

Compound	CC50 [µM]
O=C[C@@H](CO)O[C@H](C=O)n1cnc2c(=O)[nH]cnc21 [Dialdehyde-inosine, dialdehyde form of inosine]	> 10000
O=c1[nH]c(=O)c2ncn([C@@H](CO)OC(CO)CO)c2[nH]1 [Acyclic diol-xanthosine, acyclic diol form of xanthosine]	> 10000

Test system: not listed separately
Test: Cytotoxicity, PK15 cell test
Details: pig, PK15 cells

Compound	CC50 [µM]
O=C[C@@H](CO)O[C@H](C=O)n1cnc2c(=O)[nH]cnc21 [Dialdehyde-inosine, dialdehyde form of inosine]	> 10000
O=c1[nH]c(=O)c2ncn([C@@H](CO)OC(CO)CO)c2[nH]1 [Acyclic diol-xanthosine, acyclic diol form of xanthosine]	> 10000

Test system: not listed separately
Test: Cytotoxicity, MDCK cell tests
Details: dog, MDCK cells

Compound	CC50 [µM]
O=C[C@@H](CO)O[C@H](C=O)n1cnc2c(=O)[nH]cnc21 [Dialdehyde-inosine, dialdehyde form of inosine]	> 10000
O=c1[nH]c(=O)c2ncn([C@@H](CO)OC(CO)CO)c2[nH]1 [Acyclic diol-xanthosine, acyclic diol form of xanthosine]	> 10000

Test system: MDCK cell line
Test: Cytotoxicity, MDCK cell tests
Details: read-out: CC50 (Table 10, CPV); cytotoxicity

Compound	CC50 [µM]
O=C[C@@H](CO)O[C@H](C=O)n1cnc2c(=O)[nH]cnc21 [Dialdehyde-inosine, dialdehyde form of inosine]	> 10000
O=c1[nH]c(=O)c2ncn([C@@H](CO)OC(CO)CO)c2[nH]1 [Acyclic diol-xanthosine, acyclic diol form of xanthosine]	> 10000

Test system: not listed separately
Test: Cytotoxicity, MDBK cell tests
Details: bovine, MDBK cells

Compound	CC50 [µM]
O=C[C@@H](CO)O[C@H](C=O)n1cnc2c(=O)[nH]cnc21 [Dialdehyde-inosine, dialdehyde form of inosine]	> 10000
O=c1[nH]c(=O)c2ncn([C@@H](CO)OC(CO)CO)c2[nH]1 [Acyclic diol-xanthosine, acyclic diol form of xanthosine]	> 10000

Test system: MDBK cell line
Test: Cytotoxicity, MDBK cell tests
Details: read-out: CC50 (Table 9, BRV); cytotoxicity

Compound	CC50 [µM]
O=C[C@@H](CO)O[C@H](C=O)n1cnc2c(=O)[nH]cnc21 [Dialdehyde-inosine, dialdehyde form of inosine]	> 10000

Test system: not listed separately
Test: Cytotoxicity (WST-1 / DAPI staining), PRRSV test cells
Details: monkey, Marc-145 cells (monkey kidney)

Compound	CC50 [µM]
O=C[C@@H](CO)O[C@H](C=O)n1cnc2c(=O)[nH]cnc21 [Dialdehyde-inosine, dialdehyde form of inosine]	> 10000
O=c1[nH]c(=O)c2ncn([C@@H](CO)OC(CO)CO)c2[nH]1 [Acyclic diol-xanthosine, acyclic diol form of xanthosine]	> 8000
